According to patent US9133158B2, “Bicyclic dihydroisoquinoline-1-one derivatives” (Hoffmann-La Roche Inc., priority 2011, dated 2015):
pEC50: −log10 of the molar value.

How the values were obtained:
human CYP11B2 = molecular target: T1, human CYP11B2 (Homo sapiens, UniProt P19099); assay: G-402 cellular enzyme assay, human CYP11B2 (aldosterone release, HTRF); assay type: cell-based; conditions: G-402 cells, 1 μM Deoxycorticosterone
T1 construct: expressed in transfected cells
T1 sequence (P19099 25-503): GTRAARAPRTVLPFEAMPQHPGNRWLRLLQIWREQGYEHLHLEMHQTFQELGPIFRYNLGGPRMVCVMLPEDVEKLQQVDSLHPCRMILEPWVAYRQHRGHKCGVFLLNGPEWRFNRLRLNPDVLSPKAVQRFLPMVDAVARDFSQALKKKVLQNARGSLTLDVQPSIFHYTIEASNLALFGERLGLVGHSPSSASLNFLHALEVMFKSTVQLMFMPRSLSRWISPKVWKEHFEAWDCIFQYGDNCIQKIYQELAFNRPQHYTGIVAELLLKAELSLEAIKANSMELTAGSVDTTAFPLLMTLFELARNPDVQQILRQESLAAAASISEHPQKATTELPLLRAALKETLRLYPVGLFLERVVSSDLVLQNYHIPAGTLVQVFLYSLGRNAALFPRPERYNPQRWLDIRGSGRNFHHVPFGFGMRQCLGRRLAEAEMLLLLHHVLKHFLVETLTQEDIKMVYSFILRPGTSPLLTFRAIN
In short: (§1)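 Inhibition of steroid release was taken as enzyme inhibition. CYP11B1 assays used 1 μM deoxycortisol with cortisol detection, CYP11B2 assays 1 μM deoxycorticosterone with aldosterone detection, both by HTRF after 16 h in stable G-402 cells; EC50 from least-squares MMF fit.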

human CYP11B1 = molecular target: T2, human CYP11B1 (Homo sapiens, UniProt P15538); assay: G-402 cellular enzyme assay, human CYP11B1 (cortisol release, HTRF); assay type: cell-based; conditions: G-402 cells, 1 μM Deoxycortisol
T2 construct: expressed in transfected cells
T2 sequence (P15538 25-503): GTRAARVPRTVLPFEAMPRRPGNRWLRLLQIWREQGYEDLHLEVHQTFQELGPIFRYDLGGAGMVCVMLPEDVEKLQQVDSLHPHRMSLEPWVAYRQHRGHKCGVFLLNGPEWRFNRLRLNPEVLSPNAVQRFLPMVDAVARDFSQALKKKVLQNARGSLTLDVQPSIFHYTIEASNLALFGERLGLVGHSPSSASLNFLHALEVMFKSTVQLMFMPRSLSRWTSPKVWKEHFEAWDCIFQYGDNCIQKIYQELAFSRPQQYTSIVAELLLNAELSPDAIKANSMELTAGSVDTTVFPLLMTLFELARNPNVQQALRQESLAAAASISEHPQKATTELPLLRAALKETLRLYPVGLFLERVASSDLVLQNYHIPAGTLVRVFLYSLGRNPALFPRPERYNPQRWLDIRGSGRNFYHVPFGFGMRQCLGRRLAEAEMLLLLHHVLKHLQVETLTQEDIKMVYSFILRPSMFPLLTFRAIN
In short: as §1

pEC50 (human CYP11B2) | pEC50 (human CYP11B1) | SMILES
7.27 | 6.06 | CC(O)c1cncc(N2CCc3cc(Cl)ccc3C2=O)c1 (centres unmarked) [Example 13, 6-Chloro-2-[5-(1-hydroxy-ethyl)-pyridin-3-yl]-3,4-dihydro-2H-isoquinolin-1-one]
7.26 | 5.96 | C[C@@H](O)c1cncc(N2CCc3cc(Cl)ccc3C2=O)c1 [Example 14, 6-Chloro-2-[5-((R)-1-hydroxy-ethyl)-pyridin-3-yl]-3,4-dihydro-2H-isoquinolin-1-one]
7.17 | 6.04 | C[C@H](O)c1cncc(N2CCc3cc(Cl)ccc3C2=O)c1 [Example 15, 6-Chloro-2-[5-((S)-1-hydroxy-ethyl)-pyridin-3-yl]-3,4-dihydro-2H-isoquinolin-1-one]
6.22 | 4.85 | Nc1cncc(N2CCc3cc(Cl)ccc3C2=O)c1 [Example 17, 2-(5-Aminopyridin-3-yl)-6-chloro-3,4-dihydro-2H-isoquinolin-1-one]
7.07 | 5.98 | O=C1c2ccc(Cl)cc2CCN1c1cncc(C(O)C2CC2)c1 (centres unmarked) [Example 20, 6-Chloro-2-[5-(cyclopropyl-hydroxy-methyl)-pyridin-3-yl]-3,4-dihydro-2H-isoquinolin-1-one]
7.38 | 6.58 | COC(c1cncc(N2CCc3cc(Cl)ccc3C2=O)c1)C1CC1 (centres unmarked) [Example 21, 6-Chloro-2-[5-(cyclopropyl-methoxy-methyl)-pyridin-3-yl]-3,4-dihydro-2H-isoquinolin-1-one]
7.19 | 6.24 | O=C1c2ccc(Cl)cc2CCN1c1cncc(CCO)c1 [Example 23, 6-Chloro-2-[5-(2-hydroxy-ethyl)-pyridin-3-yl]-3,4-dihydro-2H-isoquinolin-1-one]
6.49 | 5.09 | O=C1CCCN1c1cncc(N2CCc3cc(Cl)ccc3C2=O)c1 [Example 26, 6-Chloro-2-[5-(2-oxo-pyrrolidin-1-yl)-pyridin-3-yl]-3,4-dihydro-2H-isoquinolin-1-one]

Further lines, the molecule ahead of its results:

SMILES | pEC50 (human CYP11B2) | pEC50 (human CYP11B1)
COC(C)c1cncc(N2CCc3cc(Cl)ccc3C2=O)c1 (centres unmarked) [Example 16, 6-Chloro-2-[5-(1-methoxy-ethyl)-pyridin-3-yl]-3,4-dihydro-2H-isoquinolin-1-one] | 7.71 | 6.90
O=C1c2ccc(Cl)cc2CCN1c1cncc(C(O)C(F)(F)F)c1 (centres unmarked) [Example 18, 6-Chloro-2-[5-(2,2,2-trifluoro-1-hydroxy-ethyl)-pyridin-3-yl]-3,4-dihydro-2H-isoquinolin-1-one] | 7.23 | 6.29
COC(c1cncc(N2CCc3cc(Cl)ccc3C2=O)c1)C(F)(F)F (centres unmarked) [Example 19, 6-Chloro-2-[5-(2,2,2-trifluoro-1-methoxy-ethyl)-pyridin-3-yl]-3,4-dihydro-2H-isoquinolin-1-one] | 7.22 | 6.70
O=C1c2ccc(Cl)cc2CCN1c1cnccc1C(F)(F)F [Example 22, 6-Chloro-2-(4-trifluoromethyl-pyridin-3-yl)-3,4-dihydro-2H-isoquinolin-1-one] | 7.25 | 6.29
COC(C)(C)c1cncc(N2CCc3cc(Cl)ccc3C2=O)c1 [Example 24, 6-Chloro-2-[5-(1-methoxy-1-methyl-ethyl)-pyridin-3-yl]-3,4-dihydro-2H-isoquinolin-1-one] | 8.25 | 7.67
Cn1ncc2c(N3CCc4cc(Cl)ccc4C3=O)cncc21 [Example 27, 6-Chloro-2-(1-methyl-1H-pyrazolo[3,4-c]pyridin-4-yl)-3,4-dihydro-2H-isoquinolin-1-one] | 7.12 | 6.14
O=C1c2ccc(Cl)cc2CCN1c1cncc2c1CCCC2O (centres unmarked) [Example 28, 6-Chloro-8′-hydroxy-3,4,5′,6′,7′,8′-hexahydro-[2,4′]biisoquinolinyl-1-one] | 6.99 | 6.12
CCC(=O)NC1CCCc2c1cncc2N1CCc2cc(Cl)ccc2C1=O (centres unmarked) [Example 29, N-(6-Chloro-1-oxo-3,4,5′,6′,7′,8′-hexahydro-1H-[2,4′]biisoquinolinyl-8′-yl)-propionamide] | 6.50 | 4.89
